Test results published in paper PMC10244169, “Psychedelics promote plasticity by directly binding to BDNF receptor TrkB” (Nature Neuroscience, 2023).

Columns and labels:
[1] = target: T1, TrkB(Y433F):Fyn (Rattus norvegicus, UniProt Q63604, Y433F); experiment: PCA of TrkB interaction with lipid raft Fyn in N2a cells; assay type: cell-based; settings: Y433F^+/− dimers
T1 construct: expressed in transfected cells; host or cells: N2a
Protocol: (§1) Ketanserin, M100907 and TRKB.FC were added to the media 10 min before treatment. The PCA method was performed as previously described[11],[75],[76]. Split humanized Gaussia princeps luciferase (hGLuc) was cloned on the C-terminus of the reporter proteins TrkB (WT and Y433F) and lipid raft Fyn. If the reporter proteins that carry complementary halves of the luciferase interact, the enzyme can refold in its functional conformation and, upon addition of its substrate, produce luminescence proportionally to the amount of reporter proteins interacting at a given time. N2a cells were seeded in 96-well plates with opaque walls and transparent bottom (PerkinElmer, ViewPlate 96). Cells were transfected with Lipofectamine 2000 according to the manufacturer’s instructions 24 h post-plating with the PCA pair plasmids: phGLuc(1C)-TrkB(WT) or the mutant phGLuc(1C)-TrkB(Y433F) and phGLuc(2 C)-TrkB(WT) for the dimerization experiments; phGLuc(1C)-lipid raft Fyn and phGLuc(2C)-TrkB(WT) or phGLuc(2C)-TrkB(Y433F) for the lipid raft localization experiments. Forty-eight hours post transfection, cells were treated (40 min, 37 °C) in phenol red-free Dulbecco’s modified Eagle medium without serum. […] The PCA signal was detected with the substrate for the luciferase, native coelenterazine, which was injected into each well directly in the plate reader at a final concentration of […]. One data point was excluded from Fig. 4b by applying Grubb’s method for outlier detection test, which detected it as a significant outlier.

[2] = target: T2, TrkB(WT):Fyn (Rattus norvegicus, UniProt Q63604); experiment: as above; assay type: cell-based
T2 construct: expressed in transfected cells; host or cells: N2a
Protocol: as §1

[3] = target: T3, eGFP-tagged TrkB (WT) (Rattus norvegicus, UniProt Q63604); experiment: Microscale thermophoresis (MST) in HEK293T lysates; assay type: binding; settings: for h (best-fit, 1c/1d) / Bmax (best-fit, 1c/1d): MST WT; for Bmax (best-fit, 1c/1d): fit ambiguous; for binding by MST: native (WT) TrkB
T3 construct: expressed in transfected cells; host or cells: HEK293T
Protocol: (§2) MST experiments were performed using the Monolith NT.115 (Blue/Red) instrument (NanoTemper Technologies). Lysates of HEK293T cells expressing GFP-tagged TrkB (WT, Y433F, TrkA.TM) were lysed, vortexed, sonicated and centrifuged 24 h after transient transfection and used as a source of fluorescently labeled TrkB, similarly to previously described protocols[11],[45]–[47]. The advantage of this approach is the possibility of studying the proteins in close-to-native conditions. However, the presence of other proteins, lipids, nucleic acids and other components of crude cell lysates can alter the diffusion of biomolecules and therefore binding affinities. High viscosity and background signal typically results in the affinity values being orders of magnitude […] than those of more traditional binding assays. […] The measurements were performed in premium coated capillaries (NanoTemper Technologies, MO-K025) using a LED source with 470 nm and 50% infrared-laser power at 25 °C. Analysis was performed using MO Affinity Analysis 2.3. Results were fitted to specific binding with Hill slope equations from GraphPad Prism 9.2.

[4] = target: T4, GFP-tagged TrkB Y433F (Rattus norvegicus, UniProt Q63604, Y433F); experiment: Microscale thermophoresis (MST) in HEK293T lysates; assay type: binding; settings: for Bmax (best-fit, 1c/1d) / h (best-fit, 1c/1d): MST Y433F; for binding by MST: Y433F
T4 construct: expressed in transfected cells; host or cells: HEK293T
Protocol: as §2

[5] = tested on: GFP-tagged TrkA.TM; experiment: Microscale thermophoresis (MST) in HEK293T lysates; assay type: binding
Protocol: as §2

[6] = tested on: pERK; experiment: Western blot of ERK phosphorylation in cortical neurons; assay type: cell-based, rat
Protocol: In a separate set of experiments to examine the effect of 5-HT2A activation, M100907 (100 nM) was administered as a 10 min pretreatment and remained in the medium for the rest of the experiment. Next, cells were lysed and centrifuged. […] The co-immunoprecipitation was carried out as previously described[11],[23],[24] with minor modifications. Briefly, Magnetic Dynabeads Protein G (Invitrogen, 10004D) were coated with anti-TrkB antibody (R&D Systems, AF1494) at 200 ng of antibody per 1 µl of beads in rotation (2 h, 4 °C). Finally, lysates were mixed with the coated beads (100 µg of total protein per 15 µl of beads) and incubated in rotation (overnight, 4 °C).
Proteins were separated according to their molecular weight by SDS–PAGE and transferred to a polyvinylidene fluoride membrane. Membranes were incubated with the following primary antibodies (all 1:1,000 in 3% BSA in TBS-T, overnight, 4 °C): anti-TrkB (R&D Systems, AF1494), anti-β-actin (Sigma-Aldrich, A1978), anti-phospho-mTOR (Cell Signaling Technology, 5536S), anti-phospho-p44/42 MAPK (Erk1/2) (Cell Signaling Technology, 9106S), anti-mTOR (Cell Signaling Technology, 2972S) and anti-p44/42 MAPK (Erk1/2) (Cell Signaling Technology, 9102S). […] Protein bands were visualized using enhanced chemiluminescent substrate (Thermo Scientific, 32132, ECL Plus) and imaged with a charge-coupled device camera (G:BOX, Syngene).

[7] = tested on: mice; experiment: Repeated forced swimming test (rFST); assay type: in vivo, mouse
Protocol: rFST was conducted in WT and Y433F^+/− mice as described in literature[33],[92] with minor modifications. Briefly, female and male adult mice were exposed to five consecutive pretest sessions (5 min of duration, 24 h apart). […] The animals were submitted to a 5 min test session 7 days after the drug administration. The apparatus consisted of 5 l glass beaker cylinders (19 cm diameter, 20 cm water column at 23 ± 2 °C). The water was changed between each trial, for each animal. After each session, the animals were dried and kept in a warmed cage before returning to their home cages. The pretest and test sessions were recorded and analyzed by a trained observer blind to treatment and genotype.

[8] = 7 d, saline minus LSD, Bonferroni's multiple comparisons test

T4 sequence (Q63604 32-821 Y433F): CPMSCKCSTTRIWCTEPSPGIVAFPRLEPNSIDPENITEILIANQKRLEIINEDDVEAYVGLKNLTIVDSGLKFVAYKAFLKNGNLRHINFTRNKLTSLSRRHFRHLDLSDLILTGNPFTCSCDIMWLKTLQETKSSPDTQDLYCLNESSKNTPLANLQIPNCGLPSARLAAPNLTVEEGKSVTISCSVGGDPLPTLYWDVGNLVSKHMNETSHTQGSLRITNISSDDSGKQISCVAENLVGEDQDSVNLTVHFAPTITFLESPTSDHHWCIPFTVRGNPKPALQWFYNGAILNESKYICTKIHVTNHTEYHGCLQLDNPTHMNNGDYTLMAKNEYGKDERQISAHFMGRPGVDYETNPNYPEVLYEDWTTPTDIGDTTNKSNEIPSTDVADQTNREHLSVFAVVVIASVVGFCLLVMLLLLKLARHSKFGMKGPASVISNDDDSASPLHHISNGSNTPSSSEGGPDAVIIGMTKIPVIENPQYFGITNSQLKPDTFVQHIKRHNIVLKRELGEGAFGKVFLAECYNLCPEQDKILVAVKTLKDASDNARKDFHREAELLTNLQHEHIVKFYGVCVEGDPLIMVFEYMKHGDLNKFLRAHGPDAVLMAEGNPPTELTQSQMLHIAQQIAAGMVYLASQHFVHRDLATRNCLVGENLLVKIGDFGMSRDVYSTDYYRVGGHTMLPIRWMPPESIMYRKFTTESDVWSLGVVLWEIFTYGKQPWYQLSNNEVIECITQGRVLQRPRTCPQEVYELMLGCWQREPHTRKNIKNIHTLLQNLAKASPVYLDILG
T3 sequence (Q63604 32-821): as the sequence (Q63604 32-821 Y433F) above, with F402Y counted along it
T1 sequence (Q63604 32-821 Y433F): as the sequence (Q63604 32-821 Y433F) above
T2 sequence (Q63604 32-821): as the sequence (Q63604 32-821 Y433F) above, with F402Y counted along it

Row | Compound | TrkB interaction with Fyn [1] | TrkB interaction with Fyn [2] | h (best-fit, 1c/1d) [3] | Bmax (best-fit, 1c/1d) [3] | binding by MST [3] | Bmax (best-fit, 1c/1d) [4] | h (best-fit, 1c/1d) [4] | binding by MST [4] | Bmax (best-fit, 1c/1d) [5] | h (best-fit, 1c/1d) [5] | further results
1 | CCN(CC)C(=O)C1C=C2c3cccc4[nH]cc(c34)CC2N(C)C1 (stereo not shown) [LSD, lysergic acid diethylamide] | this effect is lost | increase TrkB interaction with lipid raft-restricted Fyn | 0.8476 | ~ 566372 | directly bind to native TrkB | ~ 430.4 | 1.157 | but not to Y433F | ~ 12873 | 1.641 | phosphorylation of ERK (pERK) ([6]; LSD 100 nM): rapidly increases phosphorylation of ERK (pERK); pERK, group mean (5d) ([6]; LSD 100 nM, 5 min, vehicle 100): 167.8; pERK, group mean (5d) ([6]; LSD 100 nM, 1 h, vehicle 100): 200.7; pERK, group mean (5d) ([6]; LSD 100 nM, 24 h, vehicle 100): 100.4; pERK, group mean (5e) ([6]; M100907:LSD (LSD after M100907 pretreatment), vehicle 100): 313.5; pERK, group mean (5e) ([6]; Vehicle:LSD, vehicle 100): 268.1; pERK, column mean over timepoints (5d) ([6]; mean of 5 min, 1 h, 24 h, vehicle 100): 156.3; pERK, column mean of LSD (5e) ([6]; over vehicle and M100907 pretreatment, mean of vehicle 104): 290.8; Mean, figure 7g (repeated forced swimming test) ([7]; 7 d, pretest = 100): 81.36; Mean Diff., figure 7f, WT+SAL vs. WT+LSD [7, 8]: 34.99; Mean Diff., figure 7f, Y433F+/-+SAL vs. Y433F+/-+LSD [7, 8]: 7.08; Mean Diff. vs. Vehicle, figure 7g ([7]; 7 d, vehicle minus treated, Bonferroni's multiple comparisons test): 13.93; antidepressant-like effect in rFST ([7]; WT mice, 7 days after single administration): sustained antidepressant-like effect; Mean, figure 7f (repeated forced swimming test) ([7]; WT+LSD, 7 d, pretest = 100): 60.98; Mean, figure 7f (repeated forced swimming test) ([7]; Y433F+/-+LSD, 7 d, pretest = 100): 93.99; antidepressant-like effect in rFST ([7]; Y433F^+/− mice): not Y433F^+/− mice
2 | COc1cccc([C@H](O)C2CCN(CCc3ccc(F)cc3)CC2)c1OC [M100907] |  |  |  |  |  |  |  |  |  |  | effect of pretreatment on LSD-induced increase in pERK ([6]; M100907 100 nM): does not prevent LSD-induced increase in pERK; pERK, group mean (5e) ([6]; M100907:Vehicle (M100907 100 nM alone), vehicle 100): 108; pERK, row mean of M100907 (5e) ([6]; over vehicle and LSD treatment, mean of vehicle row 184.0): 210.8; effect of pretreatment on antidepressant-like effect of LSD in rFST ([7]; M100907 0.5 mg kg^−1): did not prevent the antidepressant-like effect of LSD
3 | CN(C)CCc1c[nH]c2cccc(O)c12 [PSI, psilocin] | this effect is lost | increase TrkB interaction with lipid raft-restricted Fyn | 0.8209 | ~ 268422 | directly bind to native TrkB | 49.04 | 1.151 | but not to Y433F | 151.3 | 1.115 | 
